*1 amine or outer side, *2 acyl side, *3 side chain or, on linkers, in order; H or OH if unused. Where a SMILES comes first, the peptide text is derived from it. Bridges are numbered along the chain shown (N, C = ends). [ ]: non-standard residue; d: D form. The star is where a group is joined. Ala(1-(4-CO-Ph)triazol-4-yl) = O=C([C@H](Cc1cn(-c2ccc(C(=O)[*:3])cc2)nn1)N[*:1])[*:2]; X1 = O=C(O)CN1CCN(CC(=O)O)CCN([C@H](CCC(=O)*)C(=O)O)CC1; X2 = Cc1ccc(CCCC(=O)NCCCC[C@H](N*)C(N)=O)cc1; AEEA = NCCOCCOCC(=O)O
Columns and labels:
[1] = test system: MPC tumor-bearing NMRI-nu/nu mice; experiment: Small-animal PET imaging in subcutaneous MPC tumor allograft model
Procedure: (§1) The biodistribution of [ ^ 64 Cu]­Cu-NODAGA-cLAB­(5/6)-TATE, [ ^ 64 Cu]­Cu-NODAGA-cLAB4- scr TATE, and [ ^ 64 Cu]­Cu-DOTA-EB-TATE was assessed in a subcutaneous MPC tumor allograft model via small-animal PET imaging (Figure A–D). The time-activity curves (TACs) for tumor, kidneys, and heart are shown in Figure A–D (for TACs of muscle and liver, see Figure S6) and the calculated areas under curves (AUC0–48h) and tumor-to-tissue ratios are graphically summarized in Figure E,F, respectively.
(§2) (A–D) Time-activity curves (SUV, decay-corrected, as a function of time up to 48 h) obtained by PET acquisition are depicted (0–2 h in dynamic mode and time points 5, 24, and 48 h p.i.; the x-axes are segmented accordingly). Data shown are mean values (±SD) of a group of MPC tumor-bearing NMRI-nu/nu mice (n = 2, but for cLAB6-TATE n = 4). […] (E) Calculated AUC0–48h values. Data shown are mean values (±SD). (F) Tumor/organ ratios based in the AUC0–48h values.
(§3) A number of 4 × 10^6 MPC cells were resuspended in 40 μL of Dulbecco’s phosphate-buffered saline and injected subcutaneously into the shoulder of 7–10-week-old female nude mice (Rj:NMRI-Foxn1^nu/nu, Janvier Laboratories, Le Genest-Saint-Isle, France). General anesthesia was induced and maintained with inhalation of 10% (v/v) desflurane in 30% oxygen/air (v/v). Tumor growth was monitored using caliper measurements. Animals were sacrificed using CO2 inhalation and cervical dislocation. When diameters of MPC tumors reached 8 ± 3 mm (volumes of 65–282 mm^3), small-animal positron emission tomography (PET) was performed using the nanoScan PET/CT (Mediso Medical Imaging Systems, Budapest, Hungary) and Si78 PET/CT (BRUKER, Billerica, MA) instruments. Scanners were cross-calibrated using a syringe source containing 10 MBq of [^64Cu]­CuCl2 diluted in 2 mL of 0.01 M HCl. Each mouse (n = 2) received between 7 and 10 MBq of the respective radioligand (A m = 40 GBq/μmoL) delivered in 0.154 M NaCl via intravenous injection through a tail vein catheter within the initial 30 s after scan start. […] Standardized uptake values (SUV = [MBq detected activity/mL tissue]/[MBq injected activity/g body weight]) were determined in defined volumes of interest (VOIs) and reported as VOI-averaged SUVmean ± range [min–max]. Assuming a density of 1 g/mL for body tissues, the SUVs become dimensionless.

[2] = as above; settings: female, NMRI-nu/nu (Rj:NMRI-Foxn1nu/nu), mouse, iv, total radioactivity
Procedure: as §1, §2, §3

[3] = molecular target: HSA (Homo sapiens, UniProt P02768); experiment: Estimation of Kd[HSA] from structure-activity relationships of the isolated cLABs
HSA, sequence (P02768 25-609): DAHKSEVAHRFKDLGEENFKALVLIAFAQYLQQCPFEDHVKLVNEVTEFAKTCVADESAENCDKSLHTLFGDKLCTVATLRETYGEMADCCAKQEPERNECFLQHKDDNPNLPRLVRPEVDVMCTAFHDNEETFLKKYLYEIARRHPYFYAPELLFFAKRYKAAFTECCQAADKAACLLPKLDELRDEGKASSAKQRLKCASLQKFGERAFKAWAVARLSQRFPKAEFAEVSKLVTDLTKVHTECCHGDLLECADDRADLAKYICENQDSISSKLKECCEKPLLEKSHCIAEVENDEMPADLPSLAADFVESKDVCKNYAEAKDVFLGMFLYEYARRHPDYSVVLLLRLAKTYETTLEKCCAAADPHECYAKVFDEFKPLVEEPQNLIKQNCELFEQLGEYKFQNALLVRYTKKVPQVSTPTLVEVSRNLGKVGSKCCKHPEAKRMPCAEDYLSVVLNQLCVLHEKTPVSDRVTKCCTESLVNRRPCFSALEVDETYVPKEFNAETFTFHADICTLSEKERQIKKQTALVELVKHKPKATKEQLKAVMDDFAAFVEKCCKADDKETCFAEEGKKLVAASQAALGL
From the text: Table S1: Comparison of estimated and determined Kd[HSA] values for the 64Cu-labeled TATE derivatives bearing an albumin […]
predicted determinedi predict./determ. cLAB1 R1-pentanoyl-D-Lys(IPB)-OH 8.0a 3.1j 2.6 cLAB2 R1-benzoyl-L-Lys(IPB)-OH 0.36b 1.8j 0.2 cLAB3 R1-benzoyl-L-Lys(IPB)-NH2 7.9c 9.2j 0.9 […]
cLAB4-scrTATE R1-benzoyl-L-Lys(MPB)-NH2 66d 42 1.6 a Represents the Kd value of the albumin binder (R)-1e (5-N3-pentanoyl-D-Lys(IPB)-OH).1 b Represents the Kd value of the albumin binder (S)-1f (4-N3-benzoyl-L-Lys(IPB)-OH).1 c Calculated using the Kd value of the respective carboxylic acid ((S)-1f) and a factor of 22, which is the factor between Acetyl-L-Lys(IPB)-OH ((S)-1c) an Acetyl-L-Lys(IPB)-NH2 ((S)-2a).1 […]
f Calculated using the Kd value of the respective carboxylic acid ((S)-1f) and the factors of 22 (carboxylic acid → carboxamide) and 2.2 (L → D configuration, factor between (S)-1c and (R)-1c).1 g Represents the Kd value determined for the non-radioactive compound using the fluorescence-based competition […]
h Compound names were abbreviated. i Determined using the radiometric ultrafiltration assay described in the main article. j Previously determined by us.1

In the case of Cc1ccc(CCCC(=O)NCCCC[C@H](NC(=O)c2ccc(-n3cc(C[C@H](NC(=O)CC[C@H](C(=O)O)N4CCN(CC(=O)O)CCN(CC(=O)O)CC4)C(=O)NCCOCCOCC(=O)N[C@@H](CCCCN)C(=O)N[C@H]4CSSC[C@@H](C(=O)N[C@H](C(=O)O)[C@@H](C)O)NC(=O)[C@@H](Cc5c[nH]c6ccccc56)NC(=O)[C@@H](Cc5ccccc5)NC(=O)[C@H]([C@@H](C)O)NC(=O)[C@H](Cc5ccc(O)cc5)NC4=O)nn3)cc2)C(N)=O)cc1 [[64Cu]Cu-NODAGA-cLAB4-scrTATE, metal not drawn] (X1-[Ala(1-(4-CO-Ph)triazol-4-yl)](X2)[AEEA]KCYT[dF][dW]CT-OH; disulfide 4-9), the “integral tumor uptake relative to [64Cu]Cu-NODAGA-cLAB4-TATE” value ([1]; AUC0–48h) is reported as “less than 10%”, the AUC0-48h heart ([1]; PET, i.v., 7–10 MBq/animal) is reported as 41.09 SUVmean*h and the AUC0-48h kidney ([1]; PET, i.v., 7–10 MBq/animal) is reported as 59.26 SUVmean*h. The AUC0-48h liver ([1]; PET, i.v., 7–10 MBq/animal) was 25.84 SUVmean*h, the AUC0-48h tumor ([1]; PET, i.v., 7–10 MBq/animal) was 25 SUVmean*h and the AUC0-48h tumor ([1]; PET, i.v., 7–10 MBq/animal, listed as cLAB4-scrTATE) was 25.35 SUVmean*h. The “AUC0–48h muscle” value ([1]; mouse, in vivo) was 5.5 SUVmean*h, the “integral tumor uptake, fold lower than [64Cu]Cu-NODAGA-TATE” value ([1]; mouse, in vivo) was 6 fold and the “integral tumor uptake, fold lower than [64Cu]Cu-NODAGA-cLAB4-TATE” value ([1]; mouse, in vivo) was 11 fold. For the same compound, the SUV at 24 h ([2]; muscle) was 0.04 SUV, the SUV at 24 h ([2]; tumor) was 0.49 SUV and the “Ratio Kd predict./determ.” value [3] was 1.6.

Reference: publication PMC12169663, “Deciphering the Tumor Uptake of Heterobivalent (SST2/Albumin) [^64Cu]Cu-NODAGA-cLAB-TATEs” (Journal of Medicinal Chemistry, 2025)
